Results published in patent publication US11708348B2, “Protease inhibitors for treatment of coronavirus infections” (The Scripps Research Institute, priority 2021, dated 2023).

The molecules below were run on SARS-CoV-2 strain USA-WA1/2020 (assay: microbe, parasite or virus in culture). Details: Severe acute respiratory syndrome coronavirus 2, HeLa-ACE2, 24 h, HeLa-ACE2 cells, SARS-CoV-2 infection, 24 h; cells given as a bound; read-out: EC50, uM (Hela).
Type: cell-based

Question: With `COc1cccc2[nH]c(C(=O)N[C@@H](CC(C)C)C(=O)N[C@@H](C[C@@H]3CCNC3=O)C(=O)COC(C(F)(F)F)C(F)(F)F)cc12` [Compound 157] as the molecule, how does the EC50 read?
Answer: > 1 µM

Same assay, conditions: Severe acute respiratory syndrome coronavirus 2, HeLa-ACE2, 24 h, HeLa-ACE2 cells, SARS-CoV-2 infection, 24 h; class symbols; read-out: EC50, uM (Hela)

Question: Which EC50 does the source give for `CC(C)CC(C)(O)C(=O)N1CC2(CC2)C[C@H]1C(=O)N[C@@H](C[C@@H]1CCNC1=O)C(=O)COC(F)(F)F` (stereo partly drawn) [Compound 360, (6S)-5-(2-hydroxy-2,4-dimethylpentanoyl)-N-((S)-3-oxo-1-((S)-2-oxopyrrolidin-3-yl)-4-(trifluoromethoxy)butan-2-yl)-5-azaspiro[2.4]-heptane-6-carboxamide] here?
Answer: < 0.05 µM

Question: Which EC50 does the source give for `Cc1ccc(NC(=O)C(=O)N[C@@H](CC(C)C)C(=O)N[C@@H](C[C@@H]2CCNC2=O)C(=O)COc2c(F)c(F)cc(F)c2F)c(F)c1` [Compound 68, N1-(2-fluoro-4-methylphenyl)-N2-((S)-4-methyl-1-oxo-1-(((S)-3-oxo-1-((S)-2-oxopyrrolidin-3-yl)-4-(2,3,5,6-tetrafluorophenoxy)butan-2-yl)amino)pentan-2-yl)oxalamide] here?
Answer: < 0.05 µM

Question: For `COC[C@@H](Nc1ccccc1F)C(=O)N[C@@H](CC(C)C)C(=O)N[C@@H](C[C@@H]1CCNC1=O)C(=O)COC(F)(F)F` [Compound 235, (S)-2-((R)-2-((2-fluorophenyl)amino)-3-methoxypropanamido)-4-methyl-N-((S)-3-oxo-1-((S)-2-oxopyrrolidin-3-yl)-4-(trifluoromethoxy)butan-2-yl)pentanamide], which EC50 is on record?
Answer: < 0.05 µM

Question: Which EC50 does the source give for `CC(C)C[C@H](NC(=O)C1CCC(=O)O1)C(=O)N[C@@H](C[C@@H]1CCNC1=O)C(=O)COC(F)(F)F` (stereo partly drawn) [Compound 213, N-((S)-4-methyl-1-oxo-1-(((S)-3-oxo-1-((S)-2-oxopyrrolidin-3-yl)-4-(trifluoromethoxy)butan-2-yl)amino)pentan-2-yl)-5-oxotetrahydrofuran-2-carboxamide] here?
Answer: 0.5 to 1 µM

Question: How did the EC50 turn out when `CC(C)(C)[C@@H](O)C(=O)N1C[C@H]2[C@@H]([C@H]1C(=O)N[C@@H](C[C@@H]1CCNC1=O)C(=O)COC(F)(F)F)C2(C)C` [Compound 343, (1R,2S,5S)-3-((R)-2-hydroxy-3,3-dimethylbutanoyl)-6,6-dimethyl-N-((S)-3-oxo-1-((S)-2-oxopyrrolidin-3-yl)-4-(trifluoromethoxy)butan-2-yl)-3-azabicyclo[3.1.0]-hexane-2-carboxamide] was run?
Answer: 0.05 to 0.2 µM

Question: How did the EC50 turn out when `CC(C)C[C@H](NC(=O)C12CC(C(F)(F)F)(CO1)C2)C(=O)N[C@@H](C[C@@H]1CCNC1=O)C(=O)COC(F)(F)F` [Compound 316, N-((S)-4-methyl-1-oxo-1-(((S)-3-oxo-1-((S)-2-oxopyrrolidin-3-yl)-4-(trifluoromethoxy)butan-2-yl)amino)pentan-2-yl)-4-(trifluoromethyl)-2-oxabicyclo-[2.1.1]hexane-1-carboxamide] was run?
Answer: < 0.05 µM

Question: Which EC50 does the source give for `COc1cccc2c1OC(C(=O)N[C@@H](CC(C)C)C(=O)N[C@@H](C[C@@H]1CCNC1=O)C(=O)COC(F)(F)F)C2` (stereo partly drawn) [Compound 255, 7-methoxy-N-((S)-4-methyl-1-oxo-1-(((S)-3-oxo-1-((S)-2-oxopyrrolidin-3-yl)-4-(trifluoromethoxy)butan-2-yl)amino)pentan-2-yl)-2,3-dihydrobenzofuran-2-carboxamide] here?
Answer: < 0.05 µM

Question: For `CC(C)C[C@H](NC(=O)C12CCC(CC1)O2)C(=O)N[C@@H](C[C@@H]1CCNC1=O)C(=O)COC(F)(F)F` [Compound 309, N-((S)-4-methyl-1-oxo-1-(((S)-3-oxo-1-((S)-2-oxopyrrolidin-3-yl)-4-(trifluoromethoxy)butan-2-yl)amino)pentan-2-yl)-7-oxabicyclo [2.2.1]-heptane-1-carboxamide], which EC50 is on record?
Answer: < 0.05 µM

Same assay, conditions: Severe acute respiratory syndrome coronavirus 2, HeLa-ACE2, 24 h, HeLa-ACE2 cells, SARS-CoV-2 infection, 24 h; given as bound; read-out: EC50, uM (Hela)

Question: With `CC(C)(F)c1cc(C(=O)N2C=C3C[C@@H]3[C@H]2C(=O)N[C@@H](C[C@@H]2CCNC2=O)C(=O)COC(F)(F)F)no1` [Compound 501, (1S,2S)-3-(5-(2-fluoropropan-2-yl)isoxazole-3-carbonyl)-N-((S)-3-oxo-1-((S)-2-oxopyrrolidin-3-yl)-4-(trifluoromethoxy)butan-2-yl)-3-azabicyclo[3.1.0]hex-4-ene-2-carboxamide] as the molecule, how does the EC50 read?
Answer: > 1 µM

Same assay, conditions: Severe acute respiratory syndrome coronavirus 2, HeLa-ACE2, 24 h, HeLa-ACE2 cells, SARS-CoV-2 infection, 24 h; read-out: EC50, uM (Hela)

Question: With `CNC(=O)C(=O)N1CC2(CC2)C[C@H]1C(=O)N[C@@H](C[C@@H]1CCNC1=O)C(=O)COC(F)(F)F` [Compound 676, (S)-5-(2-(methylamino)-2-oxoacetyl)-N-((S)-3-oxo-1-((S)-2-oxopyrrolidin-3-yl)-4-(trifluoromethoxy)butan-2-yl)-5-azaspiro[2.4]heptane-6-carboxamide] as the molecule, how does the EC50 read?
Answer: 0.05 to 0.2 µM

Question: How did the EC50 turn out when `CC(C)(F)c1cc(C(=O)N2C[C@H]3[C@@H]([C@H]2C(=O)N[C@@H](C[C@@H]2CCNC2=O)C(=O)COC(F)(F)F)C3(C)C)no1` [Compound 478, (1R,2S,5S)-3-(5-(2-fluoropropan-2-yl)isoxazole-3-carbonyl)-6,6-dimethyl-N-((S)-3-oxo-1-((S)-2-oxopyrrolidin-3-yl)-4-(trifluoromethoxy)butan-2-yl)-3-azabicyclo[3.1.0]hexane-2-carboxamide] was run?
Answer: < 0.05 µM

Question: `O=C1NCC[C@H]1C[C@H](NC(=O)[C@@H]1CC2(CC2)CN1C(=O)C(O)c1cccnc1)C(=O)COC(F)(F)F` (stereo partly drawn) [Compound 419, (6S)-5-(2-hydroxy-2-(pyridin-3-yl)acetyl)-N-((S)-3-oxo-1-((S)-2-oxopyrrolidin-3-yl)-4-(trifluoromethoxy)butan-2-yl)-5-azaspiro[2.4]heptane-6-carboxamide] was tested. Which EC50 did it give?
Answer: 0.5 to 1 µM

Question: With `CCC[C@@H](O)C(=O)N1C[C@@H]2CCC[C@@H]2[C@H]1C(=O)N[C@@H](C[C@@H]1CCNC1=O)C(=O)COC(F)(F)F` [Compound 425, (1S,3aR,6aS)-2-((R)-2-hydroxypentanoyl)-N-((S)-3-oxo-1-((S)-2-oxopyrrolidin-3-yl)-4-(trifluoromethoxy)butan-2-yl)octahydrocyclo-penta[c]pyrrole-1-carboxamide] as the molecule, how does the EC50 read?
Answer: 0.05 to 0.2 µM

Question: How did the EC50 turn out when `O=C1NCC[C@H]1C[C@H](NC(=O)[C@@H]1CC2(CC2)CN1C(=O)[C@H](O)CC(F)F)C(=O)COC(F)(F)F` [Compound 450, (S)-5-((R)-4,4-difluoro-2-hydroxybutanoyl)-N-((S)-3-oxo-1-((S)-2-oxopyrrolidin-3-yl)-4-(trifluoromethoxy)butan-2-yl)-5-azaspiro[2.4]heptane-6-carboxamide] was run?
Answer: 0.05 to 0.2 µM

Question: Which EC50 does the source give for `CC(C)(F)C(=O)N1CC2(CC2)C[C@H]1C(=O)N[C@@H](C[C@@H]1CCNC1=O)C(=O)COC(F)(F)F` [Compound 735, (S)-5-(2-fluoro-2-methylpropanoyl)-N-((S)-3-oxo-1-((S)-2-oxopyrrolidin-3-yl)-4-(trifluoromethoxy)butan-2-yl)-5-azaspiro[2.4]heptane-6-carboxamide] here?
Answer: < 0.05 µM

Question: For `C[C@](O)(C(=O)N1CC2(CC2)C[C@H]1C(=O)N[C@@H](C[C@@H]1CCNC1=O)C(=O)COC(F)(F)F)C(F)(F)F` [Compound 700, (S)-N-((S)-3-oxo-1-((S)-2-oxopyrrolidin-3-yl)-4-(trifluoromethoxy)butan-2-yl)-5-((S)-3,3,3-trifluoro-2-hydroxy-2-methylpropanoyl)-5-azaspiro[2.4]heptane-6-carboxamide], which EC50 is on record?
Answer: 0.05 to 0.2 µM

Same assay, conditions: Severe acute respiratory syndrome coronavirus 2, HeLa-ACE2, 24 h; read-out: EC50, uM (Hela)

Question: With `CCNC(=O)O[C@@H](C(=O)N1CC2(CC2)C[C@H]1C(=O)N[C@@H](C[C@@H]1CCNC1=O)C(=O)COC(F)(F)F)C(C)(C)C` [Compound 332, (R)-3,3-dimethyl-1-oxo-l-((S)-6-(((S)-3-oxo-1-((S)-2-oxopyrrolidin-3-yl)-4-(trifluoromethoxy)butan-2-yl)carbamoyl)-5-azaspiro[2.4]heptan-5-yl)butan-2-yl ethylcarbamate] as the molecule, how does the EC50 read?
Answer: 0.5 to 1 µM
